# Like-named read-outs stand apart in the source and are kept apart here.
# Legend:
# [1] = tested on: A. baumannii DH-243; experiment: Broth microdilution MIC/MBC; type: cell-based, Acinetobacter baumannii; details: for MIC: Acinetobacter baumannii, DH243, 24 h, read-out: MIC (Mean ± SEM); for MBC/MIC: value in brackets
# Method: (§1) The broth microdilution method was taken as a basis to detect the MICs of pyrazole compounds against tested clinical isolates, according to the Clinical Laboratory and Standards Institute guidelines. The broth cultures were used to prepare the bacterial inoculums, and the suspensions were adjusted to the standard 0.5 McFarland turbidity. Stock solutions of the synthesized pyrazoles were prepared in pure DMSO and further serially diluted with TS broth in the concentration range from 128 µg/mL to 0.0625 µg/mL. A well containing noninoculated TS broth, free of any antimicrobial agents, was also included to ensure the medium sterility, while Erythromycin and Amikacin served as positive controls. Bacterial growth was determined by adding 20 µL of 0.5% TTC (2,3,5-triphenyltetrazolium chloride) aqueous solution. […] All experiments were repeated three times. The bactericidal effect from each concentration of the pyrazole and pyrazolo[1,5-a]pyrimidine derivatives showing growth inhibition was further studied. For this study, a loopful of 5 µL was taken from each no-visible growth tube and streaked onto plates of TS agar.
# [2] = tested on: E. coli DH-5987; experiment: Agar well-diffusion assay; type: cell-based; details: Escherichia coli, DH5987, 50 µL of 10 mM per well, read-out: Diameter of Inhibition Zones (AZOI)
# Method: (§2) The synthesized compounds were initially screened for their in vitro antibacterial activity against the different Gram-positive and Gram-negative bacteria, tested using the agar well-diffusion assay. The turbidity of the bacterial suspensions was established to the 0.5 McFarland turbidity standard. The activity was performed on TS agar plates. The bacteria were spread on the surface of the agar plates, and 10 mm wells were screwed into the agar plates. The assay was performed under aseptic conditions. An aliquot of 50 µL of each tested compound (10 mM) was added to the wells, and the plates were incubated overnight at 37 °C. Both Erythromycin and Amikacin antibiotic disks were used as positive control, while DMSO solvent was used as a negative control in this study. The diameters of inhibition zones were measured and recorded in mm. A comparative study of the synthesized compounds was determined. The experiment was performed in triplicates.
# [3] = tested on: S. pyogenes DH-3467; experiment: Agar well-diffusion assay; type: cell-based; details: Streptococcus pyogenes
# Method: as §2
# [4] = tested on: E. faecalis DH-5478; experiment: Agar well-diffusion assay; type: cell-based; details: Enterococcus faecalis
# Method: as §2
# [5] = tested on: A. baumannii DH-243; experiment: Agar well-diffusion assay; type: cell-based; details: Acinetobacter baumannii, DH243; A. baumannii DH-243; 50 µL of 10 mM per well; read-out: Diameter of Inhibition Zones (AZOI)
# Method: as §2
# [6] = tested on: S. aureus DH-432; experiment: Agar well-diffusion assay; type: cell-based; details: Staphylococcus aureus
# Method: as §2
# [7] = tested on: E. faecalis DH-5478; experiment: Broth microdilution MIC/MBC; type: cell-based, Enterococcus faecalis; details: for MIC: Enterococcus faecalis, DH5478, 24 h, read-out: MIC (Mean ± SEM); for MBC/MIC: value in brackets
# Method: as §1
# [8] = tested on: P. aeruginosa DH-5698; experiment: Broth microdilution MIC/MBC; type: cell-based, Pseudomonus aeruginosa; details: for MIC: Pseudomonas aeruginosa, DH5698, 24 h, read-out: MIC (Mean ± SEM); for MBC/MIC: value in brackets
# Method: as §1
# [9] = tested on: E. coli DH-5987; experiment: Broth microdilution MIC/MBC; type: cell-based, Escherichia coli; details: E. coli DH-5987; for MBC/MIC: value in brackets; for MIC: Escherichia coli, DH5987, 24 h, read-out: MIC (Mean ± SEM)
# Method: as §1
# [10] = tested on: S. aureus DH-432; experiment: Broth microdilution MIC/MBC; type: cell-based, Staphylococcus aureus; details: for MIC: Staphylococcus aureus, DH432, 24 h, read-out: MIC (Mean ± SEM); for MBC/MIC: value in brackets
# Method: as §1
# [11] = tested on: S. pyogenes DH-3467; experiment: Broth microdilution MIC/MBC; type: cell-based, Streptococcus pyogenes; details: for MIC: Streptococcus pyogenes, DH3467, 24 h, read-out: MIC (Mean ± SEM); for MBC/MIC: value in brackets
# Method: as §1
# [12] = tested on: P. aeruginosa DH-5698; experiment: Agar well-diffusion assay; type: cell-based, Pseudomonus aeruginosa; details: Pseudomonas aeruginosa, DH5698; P. aeruginosa DH-5698; 50 µL of 10 mM per well; read-out: Diameter of Inhibition Zones (AZOI)
# Method: as §2
# [13] = tested on: Gram-positive isolates; experiment: Broth microdilution MIC/MBC, summary; type: cell-based; details: Gram-positive isolates (E. faecalis, S. aureus, S. pyogenes)
# Method: as §1
# [14] = DH3467, S. pyogenes DH-3467, 50 µL of 10 mM per well, read-out: Diameter of Inhibition Zones (AZOI)
# [15] = DH5478, E. faecalis DH-5478, 50 µL of 10 mM per well, read-out: Diameter of Inhibition Zones (AZOI)
# [16] = DH432, S. aureus DH-432, 50 µL of 10 mM per well, read-out: Diameter of Inhibition Zones (AZOI)
Compound,MIC [1],MBC/MIC [1],zone of inhibition at 10000 µM [2],"zone of inhibition at 10000 µM [3, 14]","zone of inhibition at 10000 µM [4, 15]",zone of inhibition at 10000 µM [5],"zone of inhibition at 10000 µM [6, 16]",MIC [7],MBC/MIC [7],MIC [8],MBC/MIC [8],melting point,MBC/MIC [9],MIC [9],MIC [10],MBC/MIC [10],MIC [11],MBC/MIC [11],zone of inhibition at 10000 µM [12],also measured
"CCOC(=O)c1ccc(N=Nc2c(N)nn3c(-c4cccs4)cc(-c4ccccc4)nc23)cc1 [Compound 8a, Ethyl-4-((2-amino-5-phenyl-7-(thiophen-2-yl)pyrazolo[1,5-a]pyrimidin-3-yl)diazenyl)benzoate]",4 ± 0.2 µg/mL,2,23.4 mm,21.4 mm,20.6 mm,19.7 mm,22 mm,4 ± 0.3 µg/mL,1,2 ± 0.3 µg/mL,1,200 to 202 °C,1,2 ± 0.2 µg/mL,2 ± 0.2 µg/mL,1,4 ± 0.4 µg/mL,1,21.6 mm,–
"CCOC(=O)c1ccc(N=Nc2c(N)nn3c(-c4ccco4)cc(-c4ccccc4)nc23)cc1 [Compound 8b, Ethyl 4-((2-amino-7-(furan-2-yl)-5-phenylpyrazolo[1,5-a]pyrimidin-3-yl)diazenyl)benzoate]",8 ± 0.2 µg/mL,2,20.1 mm,18.7 mm,17.3 mm,16.5 mm,19.5 mm,4 ± 0.1 µg/mL,2,4 ± 0.1 µg/mL,2,212 to 214 °C,1,2 ± 0.3 µg/mL,4 ± 0.3 µg/mL,2,8 ± 0.2 µg/mL,1,18.4 mm,–
"CCOC(=O)c1ccc(N=Nc2c(N)nn3c(N)c(C#N)c(-c4ccc(OC)cc4)nc23)cc1 [Compound 9b, Ethyl-4-((2,7-diamino-6-cyano-5-(4-methoxyphenyl)pyrazolo[1,5-a]pyrimidin-3-yl)diazenyl)benzoate]",2 ± 0.1 µg/mL,1,26.5 mm,25.7 mm,24.3 mm,23 mm,25 mm,2 ± 0.2 µg/mL,1,1.5 ± 0.2 µg/mL,0.5,210 to 212 °C,0.5,1 ± 0.3 µg/mL,1.5 ± 0.2 µg/mL,1,2 ± 0.3 µg/mL,0.5,25.4 mm,–
"CCOC(=O)c1ccc(N=Nc2c(N)nn3c(N)c(C#N)c(-c4ccc(Cl)cc4)nc23)cc1 [Compound 9c, Ethyl-4-((2,7-diamino-5-(4-chlorophenyl)-6-cyanopyrazolo[1,5-a]pyrimidin-3-yl)diazenyl)benzoate]",4 ± 0.4 µg/mL,1,25.2 mm,23.5 mm,23.1 mm,23.9 mm,24.2 mm,4 ± 0.2 µg/mL,1,2 ± 0.2 µg/mL,1,288 to 290 °C,1,1 ± 0.3 µg/mL,2 ± 0.3 µg/mL,1,2 ± 0.1 µg/mL,1,24.1 mm,–
"CCOC(=O)c1ccc(N=Nc2c(N)nn3c(O)c(C#N)c(-c4ccc(Cl)cc4)nc23)cc1 [Compound 10b, Ethyl 4-((2-amino-5-(4-chlorophenyl)-6-cyano-7-hydroxypyrazolo[1,5-a]pyrimidin-3-yl)diazenyl)benzoate]",2 ± 0.2 µg/mL,1,27.1 mm,26.3 mm,25.1 mm,24.2 mm,26.8 mm,2 ± 0.3 µg/mL,1,1.5 ± 0.1 µg/mL,0.5,270 to 272 °C,0.5,0.75 ± 0.1 µg/mL,1.5 ± 0.3 µg/mL,0.5,1.5 ± 0.2 µg/mL,0.5,26.3 mm,–
"CC[C@H]1OC(=O)[C@H](C)[C@@H](O[C@H]2C[C@@](C)(OC)[C@@H](O)[C@H](C)O2)[C@H](C)[C@@H](O[C@@H]2O[C@H](C)C[C@H](N(C)C)[C@H]2O)[C@](C)(O)C[C@@H](C)C(=O)[C@H](C)[C@@H](O)[C@]1(C)O [E, Erythromycin, reference compound]",–,–,–,–,–,–,–,32 ± 0.1 µg/mL,4,–,–,–,–,–,8 ± 0.2 µg/mL,2,64 ± 0.3 µg/mL,2,–,"zone of inhibition at 10000 µM ([3]; DH3467, read-out: Diameter of Inhibition Zones (AZOI)): 10.5 mm; zone of inhibition at 10000 µM ([4]; DH5478, read-out: Diameter of Inhibition Zones (AZOI)): 11 mm; zone of inhibition at 10000 µM ([6]; DH432, read-out: Diameter of Inhibition Zones (AZOI)): 12 mm; MBC ([13]; read-out: MBC): 16 to 128 µg/mL; MIC ([13]; read-out: MIC): 8 to 64 µg/mL"

# Source: publication PMC9854762, “Antibiofilm and Anti-Quorum-Sensing Activities of Novel Pyrazole and Pyrazolo[1,5-a]pyrimidine Derivatives as Carbonic Anhydrase I and II Inhibitors: Design, Synthesis, Radiosterilization, and Molecular Docking Studies” (Antibiotics, 2023)
